Measured values reported in patent publication US20250092065A1, “2-(INDAZOL-5-YL)-6-(PIPERIDIN-4-YL)-1,7-NAPHTHYRIDINE DERIVATIVES AND RELATED COMPOUNDS AS MODULATORS FOR SPLICING NUCLEIC ACIDS AND FOR THE TREATMENT OF PROLIFERATIVE DISEASES” (REMIX THERAPEUTICS INC., priority 2022, published 2025).

Columns and labels:
Target C [1] = assay: HiBiT protein abundance assay, Target C (K562 HiBiT knock-in); type: cell-based, human; conditions: HiBiT knock-in K562 cells, 24 hours, top dose 10 μM
Outline: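 K562 HiBiT knock-in cells (10000/well) were treated 24 h at 37° C with a 10-point 3-fold dilution series (top 10 μM final, ≤0.25% DMSO). HiBiT luminescence was read after lytic LgBiT detection. Percent response used unmodified K562 and DMSO-treated knock-in controls, and IC50 came from a four-parameter fit at 50% of untreated.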

Target C [2] = assay: RT-qPCR canonical junction panel assay, Target C mRNA; type: cell-based; conditions: Table 4, read-out: Target C IC50 (decrease in CJ mRNA levels)
Outline: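 A673 or K562 cells treated with compound; CJ mRNA quantified by junction-spanning RT-qPCR probe after cDNA synthesis, normalised to GAPDH, GUSB or PPIA and DMSO (2^−ΔΔCt), scaled to set ΔCt assay window; IC50 from 4-parameter fit of CJ decrease.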

HTT = assay: HiBiT protein abundance assay, HTT (K562 HiBiT knock-in); type: cell-based, human; conditions: HiBiT knock-in K562 cells, 24 hours, top dose 10 μM
Outline: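 Luminescence readout: Nano-Glo HiBiT lytic detection after 24 h compound exposure of K562 HiBiT knock-in cells, 10000 cells/well. Dosing 10-pt, 3-fold, top 10 μM final. % response vs untreated parental K562 and DMSO controls; 4PL fit, IC50 = concentration giving 50% protein abundance.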

Row | SMILES | IC50 (Target C [1]) | IC50 (Target C [2]) | IC50 (HTT)
1 | Cn1cc2cc(-c3ccc4nc([C@@H]5CCNC6(CC6)C5)ccc4n3)c(O)cc2n1 (single isomer, unassigned) [Compound 495] | < 0.1 µM | 0.1 to 1 µM | < 0.1 µM
2 | Cn1cc2cc(-c3ccc4nc([C@H]5CCNC6(CC6)C5)ccc4n3)c(O)cc2n1 (single isomer, unassigned) [Compound 496] | < 0.1 µM | 0.1 to 1 µM | < 0.1 µM
3 | Cc1nc2cc(O)c(-c3ccc4nc([C@H]5CCNC6(CC6)C5)ccc4n3)cc2o1 (single isomer, unassigned) [Compound 497] | < 0.1 µM | < 0.1 µM | < 0.1 µM
4 | Cc1nc2cc(O)c(-c3ccc4nc([C@@H]5CCNC6(CC6)C5)ccc4n3)cc2o1 (single isomer, unassigned) [Compound 498] | < 0.1 µM | 0.1 to 1 µM | < 0.1 µM
5 | CN[C@@H]1CCN(c2ccc3nc(-c4cn5cc(C)nc5c(C)c4O)ncc3n2)C1 (single isomer, unassigned) [Compound 504] | 0.1 to 1 µM | 0.1 to 1 µM | 0.1 to 1 µM
6 | CNC(=O)c1nc(-c2cc3cn(C)nc3c(C)c2O)nc2ccc(N3CCN[C@@H](C)C3)cc12 (single isomer, unassigned) [Compound 512] | 0.1 to 1 µM | 1 to 10 µM | 0.1 to 1 µM
7 | CN[C@@H]1CCN(c2ccc3nc(-c4cc5cn(C)nc5c(C)c4O)ncc3c2)C1 (single isomer, unassigned) [Compound 521] | 0.1 to 1 µM | 0.1 to 1 µM | < 0.1 µM
8 | CNC(=O)c1nc(-c2cc3cn(C)nc3c(C)c2O)nc2ccc(N3C[C@@H](C)N[C@H](C)C3)cc12 (single isomer, unassigned) [Compound 653] | 0.1 to 1 µM | 0.1 to 1 µM | < 0.1 µM
9 | Cc1c(O)c(-c2ncc3cc(N4C[C@@H](C)N[C@H](C)C4)ccc3n2)cc2cn(C)nc12 (single isomer, unassigned) [Compound 661] | 0.1 to 1 µM | 0.1 to 1 µM | 0.1 to 1 µM
10 | CNC(=O)c1nc(-c2cc3cn(C)nc3c(F)c2O)nc2ccc(N3C[C@@H](C)N[C@H](C)C3)cc12 (single isomer, unassigned) [Compound 668] | 0.1 to 1 µM | 1 to 10 µM | 0.1 to 1 µM
11 | CNC(=O)c1nc(-c2cc3cn(C)nc3c(F)c2O)nc2ccc(N3C[C@H](C)N[C@@H](C)C3)cc12 (single isomer, unassigned) [Compound 669] | 0.1 to 1 µM | 1 to 10 µM | 0.1 to 1 µM
12 | CNC(=O)c1nc(-c2cc3cn(C)nc3cc2O)nc2ccc(N3C[C@H](C)N[C@@H](C)C3)cc12 (single isomer, unassigned) [Compound 676] | 0.1 to 1 µM | > 10 µM | 0.1 to 1 µM
13 | CNC(=O)c1nc(-c2cc3cn(C)nc3cc2O)nc2ccc(N3C[C@@H](C)N[C@H](C)C3)cc12 (single isomer, unassigned) [Compound 677] | 0.1 to 1 µM | 1 to 10 µM | 0.1 to 1 µM
14 | Cc1cn2cc(-c3ccc4cc(N5C[C@H](C)N[C@@H](C)C5)cc(F)c4n3)cc(F)c2n1 (single isomer, unassigned) [Compound 705, 2,2,2-trifluoroacetate] | 0.1 to 1 µM | 0.1 to 1 µM | 0.1 to 1 µM
15 | Cn1cc2cc(-c3ncc4nc(C5CCNCC5)ccc4n3)c(O)c(F)c2n1 [Compound 155] | < 0.1 µM | 0.1 to 1 µM | < 0.1 µM
16 | Cc1nc2cc(O)c(-c3ccc4nc(N5CCNC(C(C)(C)C)C5)ccc4n3)cc2o1 (stereo not drawn) [Compound 492] | 1 to 10 µM | 1 to 10 µM | 0.1 to 1 µM
17 | Cc1nc2cc(O)c(-c3ccc4nc(N5CC[C@@H](N(C)C(C)(C)C)C5)ccc4n3)cc2o1 [Compound 493] | < 0.1 µM | < 0.1 µM | < 0.1 µM

Row | SMILES | IC50 (Target C [1]) | IC50 (Target C [2]) | IC50 (HTT)
18 | Cc1c(O)c(-c2nc(C(=O)N(C)C)c3cc(N4CCNCC4)ccc3n2)cc2cn(C)nc12 [Compound 502, 2-(6-hydroxy-2,7-dimethylindazol-5-yl)-N,N-dimethyl-6-(piperazin-1-yl)quinazoline-4-carboxamide] | 1 to 10 µM | 1 to 10 µM | 1 to 10 µM
19 | CCNC(=O)c1nc(-c2cc3cn(C)nc3c(C)c2O)nc2ccc(N3CCNCC3)cc12 [Compound 503, N-ethyl-2-(6-hydroxy-2,7-dimethylindazol-5-yl)-6-(piperazin-1-yl)quinazoline-4-carboxamide] | 0.1 to 1 µM | 0.1 to 1 µM | < 0.1 µM
20 | CNC(=O)c1nc(-c2cc(F)c3nc(C)cn3c2)nc2ccc(N3CCNCC3)cc12 [Compound 505, 2-{8-fluoro-2-methylimidazo[1,2-a]pyridin-6-yl}-N-methyl-6-(piperazin-1-yl) quinazoline-4-carboxamide] | 0.1 to 1 µM | 0.1 to 1 µM | 0.1 to 1 µM
21 | CNC(=O)c1nc(-c2cc3cn(C)nc3c(F)c2O)nc2ccc(N3CCNCC3)cc12 [Compound 506, 2-(7-fluoro-6-hydroxy-2-methylindazol-5-yl)-N-methyl-6-(piperazin-1-yl)quinazoline-4-carboxamide] | 0.1 to 1 µM | 0.1 to 1 µM | 0.1 to 1 µM
22 | CNC(=O)c1nc(-c2cc3cn(C)nc3c(C)c2O)nc2ccc(N3CCC(N(C)C)CC3)cc12 [Compound 507, 6-[4-(dimethylamino)piperidin-1-yl]-2-(6-hydroxy-2,7-dimethylindazol-5-yl)-N-methylquinazoline-4-carboxamide] | 1 to 10 µM | 1 to 10 µM | 0.1 to 1 µM
23 | CNc1nc(-c2cc3cn(C)nc3c(C)c2O)nc2ccc(N3CCNCC3)cc12 [Compound 508, 2,7-dimethyl-5-[4-(methylamino)-6-(piperazin-1-yl)quinazolin-2-yl]indazol-6-ol] | > 10 µM | > 10 µM | > 10 µM
24 | Cc1c(O)c(-c2nc(N(C)C)c3cc(N4CCNCC4)ccc3n2)cc2cn(C)nc12 [Compound 509, 5-[4-(dimethylamino)-6-(piperazin-1-yl)quinazolin-2-yl]-2,7-dimethylindazol-6-ol] | > 10 µM | > 10 µM | > 10 µM
25 | CNC(=O)c1nc(-c2cc3cn(C)nc3c(C)c2O)nc2ccc(N3CCC(NC)C3)cc12 (stereo not drawn) [Compound 510, 2-(6-hydroxy-2,7-dimethylindazol-5-yl)-N-methyl-6-[3-(methylamino)pyrrolidin-1-yl]quinazoline-4-carboxamide] | 0.1 to 1 µM | 0.1 to 1 µM | < 0.1 µM
26 | CNC(=O)c1nc(-c2cc3cn(C)nc3c(C)c2O)nc2ccc(N3C[C@@H](C)N[C@@H](C)C3)cc12 [Compound 511, 6-[(3R,5S)-3,5-dimethylpiperazin-1-yl]-2-(6-hydroxy-2,7-dimethylindazol-5-yl)-N-methylquinazoline-4-carboxamide] | 1 to 10 µM | 1 to 10 µM | 0.1 to 1 µM
27 | CC(=O)c1nc(-c2cc3cn(C)nc3c(F)c2O)nc2ccc(N3CCNCC3)cc12 [Compound 513, 1-(2-(7-fluoro-6-hydroxy-2-methyl-2H-indazol-5-yl)-6-(piperazin-1-yl)quinazolin-4-yl)ethan-1-one 2,2,2-trifluoroacetate] | 1 to 10 µM | 1 to 10 µM | 0.1 to 1 µM
28 | Cn1cc2cc(-c3nc(C#N)c4cc(N5CCNCC5)ccc4n3)c(O)c(F)c2n1 [Compound 514, 2-(7-fluoro-6-hydroxy-2-methylindazol-5-yl)-6-(piperazin-1-yl) quinazoline-4-carbonitrile; trifluoroacetic acid] | 0.1 to 1 µM | 1 to 10 µM | 0.1 to 1 µM
29 | Cc1c(O)c(-c2ccc3cc(N4CCNCC4)cc(F)c3n2)cc2cn(C)nc12 [Compound 515, 5-[8-fluoro-6-(piperazin-1-yl)quinolin-2-yl]-2,7-dimethylindazol-6-ol] | < 0.1 µM | 0.1 to 1 µM | < 0.1 µM
30 | Cn1cc2cc(-c3ccc4cc(N5CCNCC5)cc(F)c4n3)cc(F)c2n1 [Compound 516, 8-fluoro-2-(7-fluoro-2-methylindazol-5-yl)-6-(piperazin-1-yl)quinoline] | 0.1 to 1 µM | 0.1 to 1 µM | < 0.1 µM
31 | Cc1cn2cc(-c3ccc4cc(N5CCNCC5)cc(F)c4n3)cc(F)c2n1 [Compound 517, 8-fluoro-2-{8-fluoro-2-methylimidazo[1,2-a]pyridin-6-yl}-6-(piperazin-1-yl)quinoline] | 0.1 to 1 µM | 0.1 to 1 µM | < 0.1 µM
32 | Cn1cc2cc(-c3nc(C4CC4)c4cc(N5CCNCC5)ccc4n3)c(O)c(F)c2n1 [Compound 518, 5-[4-cyclopropyl-6-(piperazin-1-yl)quinazolin-2-yl]-7-fluoro-2-methylindazol-6-ol; trifluoroacetic acid] | 1 to 10 µM | > 10 µM | 1 to 10 µM
33 | Cc1c(O)c(-c2nc(-c3cncs3)c3cc(N4CCNCC4)ccc3n2)cc2cn(C)nc12 [Compound 519, 2,7-dimethyl-5-[6-(piperazin-1-yl)-4-(1,3-thiazol-5-yl)quinazolin-2-yl]indazol-6-ol] | 1 to 10 µM | > 10 µM | 1 to 10 µM
34 | Cc1c(O)c(-c2ncc3cc(N4CCNCC4)ccc3n2)cc2cn(C)nc12 [Compound 520, 2,7-dimethyl-5-[6-(piperazin-1-yl)quinazolin-2-yl]indazol-6-ol] | 0.1 to 1 µM | 1 to 10 µM | 0.1 to 1 µM
